Article PMC10788528 (The Journal of Biological Chemistry, 2023)
Several values for one entry are separate records, joined by “and”; a condition that tells them apart may be missing. Equal values may be shown once. Entries after “also recorded” stand apart in the source; their conditions may differ. Read-outs that look alike come from different tables or passages of the source.

Assays:
[1] = molecular target: T1, Sm.TRPMMCLZ (Schistosoma mansoni, UniProt A0A5K4FCC0); experiment: Ca2+ reporter assay; format: cell-based; conditions: for Activator screen at Sm.TRPMMCLZ: 10 μM; for Antagonism of (S)-MCLZ (1 μM) action at Sm.TRPMMCLZ: 100 μM, preincubation 5 min; for EC50: Activation of Sm.TRPMMCLZ, EC50, HEK293 cells, cytoplasmic Ca2+ (Fluo-4)
T1 sequence (A0A5K4FCC0 1-1380): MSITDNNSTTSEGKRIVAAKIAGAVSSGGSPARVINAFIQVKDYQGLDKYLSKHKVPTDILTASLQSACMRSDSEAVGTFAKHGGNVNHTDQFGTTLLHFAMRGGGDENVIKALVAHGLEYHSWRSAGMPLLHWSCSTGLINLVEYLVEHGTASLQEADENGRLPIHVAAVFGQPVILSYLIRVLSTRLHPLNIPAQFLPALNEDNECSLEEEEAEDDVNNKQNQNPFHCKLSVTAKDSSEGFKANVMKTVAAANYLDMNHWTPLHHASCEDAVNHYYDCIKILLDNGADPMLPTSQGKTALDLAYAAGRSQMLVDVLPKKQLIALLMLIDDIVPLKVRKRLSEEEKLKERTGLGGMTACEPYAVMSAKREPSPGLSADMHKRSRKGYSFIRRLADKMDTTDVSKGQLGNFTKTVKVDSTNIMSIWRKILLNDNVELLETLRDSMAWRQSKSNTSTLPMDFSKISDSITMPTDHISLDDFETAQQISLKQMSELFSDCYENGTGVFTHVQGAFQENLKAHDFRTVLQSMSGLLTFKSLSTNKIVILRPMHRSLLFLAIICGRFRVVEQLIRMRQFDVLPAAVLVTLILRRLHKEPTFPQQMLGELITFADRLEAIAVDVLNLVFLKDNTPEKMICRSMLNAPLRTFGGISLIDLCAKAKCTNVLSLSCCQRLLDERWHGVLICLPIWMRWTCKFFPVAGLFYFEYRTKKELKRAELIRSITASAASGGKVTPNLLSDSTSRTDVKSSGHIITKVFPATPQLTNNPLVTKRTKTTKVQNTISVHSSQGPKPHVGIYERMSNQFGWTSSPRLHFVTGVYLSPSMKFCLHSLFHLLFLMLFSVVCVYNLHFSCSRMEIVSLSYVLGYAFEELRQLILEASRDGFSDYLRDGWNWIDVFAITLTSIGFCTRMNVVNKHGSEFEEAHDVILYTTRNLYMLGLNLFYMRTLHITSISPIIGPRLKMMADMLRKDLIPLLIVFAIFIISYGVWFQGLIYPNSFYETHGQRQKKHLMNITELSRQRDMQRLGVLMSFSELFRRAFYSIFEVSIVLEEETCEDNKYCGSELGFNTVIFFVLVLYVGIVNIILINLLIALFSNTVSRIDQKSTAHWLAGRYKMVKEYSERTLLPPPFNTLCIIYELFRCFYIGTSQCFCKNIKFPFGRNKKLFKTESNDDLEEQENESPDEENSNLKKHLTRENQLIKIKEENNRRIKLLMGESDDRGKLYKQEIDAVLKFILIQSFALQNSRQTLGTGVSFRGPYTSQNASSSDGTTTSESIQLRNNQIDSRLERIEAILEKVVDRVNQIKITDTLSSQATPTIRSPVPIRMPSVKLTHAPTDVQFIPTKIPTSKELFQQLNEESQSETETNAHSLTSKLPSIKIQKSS

[2] = molecular target: Sm.TRPMPZQ (Schistosoma mansoni, UniProt A0A5K4F0X5); experiment: Ca2+ reporter assay; format: cell-based; conditions: for Activation of Sm.TRPMPZQ by Cav channel ligands: Fig. S2 concentration-response
[3] = test system: adult S. mansoni worms; experiment: Adult schistosome movement; format: cell-based, Schistosoma mansoni; conditions: for Effect on worm movement (paralysis): 1 μM, adult S. mansoni worms, images 1 min after addition; for IC50: Schistosoma mansoni, read-out: Inhibition of motility, IC50
[4] = test system: S. mansoni male worms; experiment: Acute contraction of S. mansoni male worms by benzodiazepines; format: cell-based, Schistosoma mansoni; conditions: 3 μM, 20 min
[5] = test system: juvenile worms; conditions: ref 7 (PZQ); 12 ((S)-MCLZ); cited from earlier work
[6] = test system: S. mansoni and S. haematobium infections; conditions: cited from earlier work
[7] = test system: Sm.TRPM[Y864A]MCLZ; experiment: Ca2+ reporter assay, Sm.TRPM[Y864A]MCLZ mutant; format: cell-based, Schistosoma mansoni; conditions: S2 residue mutant
[8] = test system: St.TRPMMCLZ; experiment: Ca2+ reporter assay, St.TRPMMCLZ; format: cell-based, Schistosoma turkestanicum; conditions: read-out: Activation of St.TRPMMCLZ, EC50
[9] = test system: Sm.TRPM[E868A]MCLZ; experiment: Ca2+ reporter assay, Sm.TRPM[E868A]MCLZ mutant; format: cell-based, Schistosoma mansoni; conditions: S2 residue mutant
[10] = test system: Sb.TRPM[H946Y]; experiment: Ca2+ reporter assay, Sb.TRPM[H946Y] mutant; format: cell-based, Schistosoma bovis; conditions: S4 point mutant
[11] = test system: HEK293 cells expressing GFP alone; experiment: Cell-attached current recordings, HEK293 cells expressing GFP alone; format: cell-based; conditions: 10 μM
[12] = test system: Sm.TRPM[H831A]MCLZ; experiment: Ca2+ reporter assay, Sm.TRPM[H831A]MCLZ mutant; format: cell-based, Schistosoma mansoni; conditions: binding pocket mutant
[13] = molecular target: Sb.TRPMMCLZ (Schistosoma bovis, UniProt A0A430Q971); experiment: Ca2+ reporter assay, Sb.TRPMMCLZ; format: cell-based
[14] = test system: Sm.TRPM[H827A]MCLZ; experiment: Ca2+ reporter assay, Sm.TRPM[H827A]MCLZ mutant; format: cell-based, Schistosoma mansoni; conditions: binding pocket mutant
[15] = molecular target: T1, Sm.TRPMMCLZ; experiment: Cell-attached current recordings, HEK293 cells expressing Sm.TRPMMCLZ and GFP; format: cell-based; conditions: 10 μM
[16] = test system: Sm.TRPM[R943A]MCLZ; experiment: Ca2+ reporter assay, Sm.TRPM[R943A]MCLZ mutant; format: cell-based, Schistosoma mansoni; conditions: binding pocket mutant
[17] = molecular target: Sj.TRPMMCLZ (Schistosoma japonicum, UniProt A0A4Z2D8Z3); experiment: Ca2+ reporter assay, Sj.TRPMMCLZ; format: cell-based
[18] = test system: adult S. mansoni worms; conditions: cited from earlier work
[19] = test system: Sh.TRPM[H946Y]; experiment: Ca2+ reporter assay, Sh.TRPM[H946Y] mutant; format: cell-based, Schistosoma haematobium; conditions: S4 point mutant
[20] = test system: S. japonicum worms; conditions: cited from earlier work
[21] = test system: Sm.TRPM[Y1117A]MCLZ; experiment: Ca2+ reporter assay, Sm.TRPM[Y1117A]MCLZ mutant; format: cell-based, Schistosoma mansoni; conditions: binding pocket mutant
[22] = molecular target: Sh.TRPMMCLZ (Schistosoma haematobium, UniProt A0A922LUV1); experiment: Ca2+ reporter assay, Sh.TRPMMCLZ; format: cell-based
[23] = test system: Sm.TRPMMCLZ [Y1038A]; format: cell-based, Schistosoma mansoni; conditions: 10 μM, cell-attached
[24] = molecular target: T1, Sm.TRPMMCLZ; experiment: Confocal Ca2+ imaging, HEK293 cells expressing Sm.TRPMMCLZ; format: cell-based; conditions: 10 μM
[25] = test system: Sm.TRPM[H946A]MCLZ; experiment: Ca2+ reporter assay, Sm.TRPM[H946A]MCLZ mutant; format: cell-based, Schistosoma mansoni; conditions: alanine mutant
[26] = test system: St.TRPM[Y940H]MCLZ
[27] = preliminary clinical evaluation

Sj.TRPMMCLZ, sequence (A0A4Z2D8Z3 1-1377): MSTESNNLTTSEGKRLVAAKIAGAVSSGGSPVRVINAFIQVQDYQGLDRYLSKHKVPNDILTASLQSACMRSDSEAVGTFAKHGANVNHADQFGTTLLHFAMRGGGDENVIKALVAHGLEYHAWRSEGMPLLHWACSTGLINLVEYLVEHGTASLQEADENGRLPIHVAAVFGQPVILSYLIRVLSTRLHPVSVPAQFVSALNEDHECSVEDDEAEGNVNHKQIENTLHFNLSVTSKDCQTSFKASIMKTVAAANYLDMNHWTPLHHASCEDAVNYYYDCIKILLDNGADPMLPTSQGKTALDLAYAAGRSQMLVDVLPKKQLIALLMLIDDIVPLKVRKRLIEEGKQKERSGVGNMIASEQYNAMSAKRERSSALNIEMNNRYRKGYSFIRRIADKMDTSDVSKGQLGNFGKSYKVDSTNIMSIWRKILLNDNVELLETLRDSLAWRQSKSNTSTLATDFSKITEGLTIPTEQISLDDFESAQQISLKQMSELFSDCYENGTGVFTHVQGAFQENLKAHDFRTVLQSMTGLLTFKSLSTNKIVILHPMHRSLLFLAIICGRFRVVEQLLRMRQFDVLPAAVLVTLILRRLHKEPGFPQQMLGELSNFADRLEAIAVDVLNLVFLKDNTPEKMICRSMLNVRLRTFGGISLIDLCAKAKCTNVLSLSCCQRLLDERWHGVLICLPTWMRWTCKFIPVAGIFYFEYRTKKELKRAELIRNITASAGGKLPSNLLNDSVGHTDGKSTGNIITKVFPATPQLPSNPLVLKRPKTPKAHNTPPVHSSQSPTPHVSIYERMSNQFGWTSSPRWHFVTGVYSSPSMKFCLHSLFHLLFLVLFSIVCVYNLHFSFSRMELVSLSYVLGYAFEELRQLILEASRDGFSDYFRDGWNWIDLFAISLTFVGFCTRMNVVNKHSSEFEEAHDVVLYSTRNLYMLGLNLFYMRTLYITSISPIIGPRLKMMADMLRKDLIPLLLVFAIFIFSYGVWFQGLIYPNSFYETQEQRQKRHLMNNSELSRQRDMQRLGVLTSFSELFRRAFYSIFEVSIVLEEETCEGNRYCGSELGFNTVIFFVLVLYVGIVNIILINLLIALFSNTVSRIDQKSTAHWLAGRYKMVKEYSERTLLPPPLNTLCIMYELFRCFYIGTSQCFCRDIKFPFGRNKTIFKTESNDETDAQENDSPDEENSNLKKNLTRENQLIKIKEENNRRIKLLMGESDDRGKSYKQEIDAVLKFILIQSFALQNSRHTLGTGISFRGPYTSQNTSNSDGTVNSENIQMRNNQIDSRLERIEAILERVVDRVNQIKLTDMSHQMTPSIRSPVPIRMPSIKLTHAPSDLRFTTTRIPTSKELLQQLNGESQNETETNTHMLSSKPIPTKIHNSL
Sh.TRPMMCLZ, sequence (A0A922LUV1 1-1380): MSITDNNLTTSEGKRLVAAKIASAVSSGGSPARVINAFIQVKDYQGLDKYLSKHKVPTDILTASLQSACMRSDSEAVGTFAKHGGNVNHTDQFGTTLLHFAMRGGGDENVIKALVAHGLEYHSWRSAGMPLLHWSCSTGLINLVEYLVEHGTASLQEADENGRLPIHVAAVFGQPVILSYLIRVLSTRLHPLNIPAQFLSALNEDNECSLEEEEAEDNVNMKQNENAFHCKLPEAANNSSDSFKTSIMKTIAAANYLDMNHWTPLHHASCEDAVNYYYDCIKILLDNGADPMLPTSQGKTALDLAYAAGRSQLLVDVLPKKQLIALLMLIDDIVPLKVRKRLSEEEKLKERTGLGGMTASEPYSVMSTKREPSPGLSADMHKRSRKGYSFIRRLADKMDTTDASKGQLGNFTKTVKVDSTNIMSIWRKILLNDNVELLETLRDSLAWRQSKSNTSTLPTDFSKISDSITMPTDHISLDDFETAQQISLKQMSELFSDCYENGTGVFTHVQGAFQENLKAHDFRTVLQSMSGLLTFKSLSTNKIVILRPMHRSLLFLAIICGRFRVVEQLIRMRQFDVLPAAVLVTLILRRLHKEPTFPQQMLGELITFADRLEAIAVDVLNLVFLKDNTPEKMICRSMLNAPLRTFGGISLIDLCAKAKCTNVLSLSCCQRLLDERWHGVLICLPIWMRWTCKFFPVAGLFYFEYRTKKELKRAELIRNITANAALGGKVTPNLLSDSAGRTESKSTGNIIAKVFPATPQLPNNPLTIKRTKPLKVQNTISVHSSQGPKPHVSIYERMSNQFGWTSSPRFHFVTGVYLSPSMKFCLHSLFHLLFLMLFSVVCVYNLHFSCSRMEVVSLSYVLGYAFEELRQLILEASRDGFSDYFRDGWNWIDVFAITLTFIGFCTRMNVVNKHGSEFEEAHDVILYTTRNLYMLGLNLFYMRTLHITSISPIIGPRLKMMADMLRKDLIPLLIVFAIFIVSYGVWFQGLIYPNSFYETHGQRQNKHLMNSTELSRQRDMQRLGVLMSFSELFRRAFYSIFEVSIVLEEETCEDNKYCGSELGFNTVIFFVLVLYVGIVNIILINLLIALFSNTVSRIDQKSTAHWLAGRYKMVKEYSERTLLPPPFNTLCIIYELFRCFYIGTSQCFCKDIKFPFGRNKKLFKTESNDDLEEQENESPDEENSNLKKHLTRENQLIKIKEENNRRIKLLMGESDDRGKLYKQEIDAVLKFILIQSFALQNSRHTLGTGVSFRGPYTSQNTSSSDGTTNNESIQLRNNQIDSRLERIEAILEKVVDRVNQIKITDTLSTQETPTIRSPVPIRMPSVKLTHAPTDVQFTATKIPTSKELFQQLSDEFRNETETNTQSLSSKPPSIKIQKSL
Sb.TRPMMCLZ, sequence (A0A430Q971 1-1241): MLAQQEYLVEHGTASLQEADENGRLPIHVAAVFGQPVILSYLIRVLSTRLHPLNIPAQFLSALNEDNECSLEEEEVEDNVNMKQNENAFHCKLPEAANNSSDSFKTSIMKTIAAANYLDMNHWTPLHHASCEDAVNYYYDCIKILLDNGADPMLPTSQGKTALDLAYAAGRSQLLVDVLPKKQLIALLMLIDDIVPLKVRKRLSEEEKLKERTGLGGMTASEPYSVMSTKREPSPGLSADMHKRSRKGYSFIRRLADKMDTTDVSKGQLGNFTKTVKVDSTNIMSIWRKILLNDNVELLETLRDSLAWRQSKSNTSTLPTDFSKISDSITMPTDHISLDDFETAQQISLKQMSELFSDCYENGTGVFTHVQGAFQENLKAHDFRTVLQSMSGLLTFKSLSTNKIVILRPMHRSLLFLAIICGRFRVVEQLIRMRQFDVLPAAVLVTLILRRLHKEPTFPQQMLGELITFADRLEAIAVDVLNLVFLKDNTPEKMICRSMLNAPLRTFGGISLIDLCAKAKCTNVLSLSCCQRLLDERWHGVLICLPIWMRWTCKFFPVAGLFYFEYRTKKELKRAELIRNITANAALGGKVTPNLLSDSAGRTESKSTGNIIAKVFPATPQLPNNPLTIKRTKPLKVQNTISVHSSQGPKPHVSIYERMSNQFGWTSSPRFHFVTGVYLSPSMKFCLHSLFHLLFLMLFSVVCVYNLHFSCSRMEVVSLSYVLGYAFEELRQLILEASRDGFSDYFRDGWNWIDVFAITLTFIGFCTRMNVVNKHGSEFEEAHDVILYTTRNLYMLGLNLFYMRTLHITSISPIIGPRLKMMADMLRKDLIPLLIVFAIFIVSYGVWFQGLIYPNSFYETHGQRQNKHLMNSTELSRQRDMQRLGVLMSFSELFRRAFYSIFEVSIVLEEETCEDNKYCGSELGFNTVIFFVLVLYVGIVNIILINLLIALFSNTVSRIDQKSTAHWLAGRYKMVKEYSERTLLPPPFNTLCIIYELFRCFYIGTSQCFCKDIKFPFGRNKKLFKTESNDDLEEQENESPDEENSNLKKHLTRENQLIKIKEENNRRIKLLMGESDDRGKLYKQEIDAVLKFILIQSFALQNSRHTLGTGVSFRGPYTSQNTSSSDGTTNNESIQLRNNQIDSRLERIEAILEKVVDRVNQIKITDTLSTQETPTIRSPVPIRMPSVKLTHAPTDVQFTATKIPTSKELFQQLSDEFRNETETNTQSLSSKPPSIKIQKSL

COCCOC(=O)C1=C(C)NC(C)=C(C(=O)OC(C)C)C1c1cccc([N+](=O)[O-])c1 (stereo not drawn) [nimodipine]
Activator screen at Sm.TRPMMCLZ [1]: activated
Activation of Sm.TRPMPZQ by Cav channel ligands [2]: but not Sm.TRPMPZQ

COC(=O)c1c(C)[nH]c(C)c1C(=O)c1ccccc1Cc1ccccc1 [FPL-64176]
Activator screen at Sm.TRPMMCLZ [1]: activated
Activation of Sm.TRPMPZQ by Cav channel ligands [2]: but not Sm.TRPMPZQ

C[N+](C)(C)CCOC(N)=O [carbachol]
Activator screen at Sm.TRPMMCLZ [1]: inactive

O=C(C1CCCCC1)N1CC(=O)N2CCc3ccccc3[C@@H]2C1 [(R)-PZQ, praziquantel]
Effect on worm movement (paralysis) [3]: rapid, spastic paralysis
IC50 [3]: 250 ± 70 nM

O=C1NC(c2cccc([N+](=O)[O-])c2)=CCN1c1ccccc1O [icilin]
Activator screen at Sm.TRPMMCLZ [1]: inactive

C=CCN=C=S [allyl isothiocyanate]
Activator screen at Sm.TRPMMCLZ [1]: inactive

CCOC(=O)c1ncn2c1CN(C)C(=O)c1cc(F)ccc1-2 [flumazenil]
Antagonism of (S)-MCLZ (1 μM) action at Sm.TRPMMCLZ [1]: weakly antagonized

CN1C(=O)CN=C(c2ccccc2)c2cc(Cl)ccc21 [diazepam]
Acute contraction / paralysis of S. mansoni male worms [4]: did not evoke worm contraction

CCN(CC)CCN1C(=O)CN=C(c2ccccc2F)c2cc(Cl)ccc21 [flurazepam]
Acute contraction / paralysis of S. mansoni male worms [4]: did not evoke worm contraction

CC1CCC(C(C)C)C(O)C1 (stereo not drawn) [menthol]
Activator screen at Sm.TRPMMCLZ [1]: inactive

COC(=O)C1=C(C)NC(C)=C(C(=O)OC)C1c1ccccc1[N+](=O)[O-] [nifedipine]
Antagonism of (S)-MCLZ (1 μM) action at Sm.TRPMMCLZ [1]: weakly antagonized; also recorded: weakly attenuated

NCCCC(=O)O [GABA]
Activator screen at Sm.TRPMMCLZ [1]: inactive

O=C1CN=C(c2ccccc2Cl)c2cc([N+](=O)[O-])ccc2N1 [Clonazepam]
EC50 [1]: 2100 ± 200 nM
Acute contraction / paralysis of S. mansoni male worms [4]: caused acute worm paralysis

[Cl-].[Cl-].[Mg+2] [Mg^2+, MgCl2]
Inhibition of Ca2+ permeability through TRPMMCLZ by metal salt ([1]; (S)-MCLZ 1 μM, weakest in rank order La3+ > Ba2+ > Mg2+): partial inhibition

O=C(C1CCCCC1)N1CC(=O)N2CCc3ccccc3C2C1 (racemic) [(±)-PZQ, praziquantel]
Agonist activity at Sm.TRPMMCLZ (concentration-response) ([1]; HEK293 cells, cytoplasmic Ca2+): did not activate
Antagonism of (S)-MCLZ activation of Sm.TRPMMCLZ ([1]; competition versus (S)-MCLZ (1 μM)): failed to inhibit
Efficacy against juvenile / immature worms [5]: poorly effective against immature worms
Cure rates ([6]; at clinical dosing): 60–90%

COc1cc(CNC(=O)CCCC/C=C/C(C)C)ccc1O [capsaicin]
Activator screen at Sm.TRPMMCLZ [1]: inactive

NCCc1c[nH]c2ccc(O)cc12 [5-hydroxytryptamine]
Activator screen at Sm.TRPMMCLZ [1]: inactive

NCCc1ccc(O)c(O)c1 [dopamine]
Activator screen at Sm.TRPMMCLZ [1]: inactive

COc1ccc(CCN(C)CCCC(C#N)(c2cc(OC)c(OC)c(OC)c2)C(C)C)cc1OC (stereo not drawn) [methoxyverapamil]
Antagonism of (S)-MCLZ (1 μM) action at Sm.TRPMMCLZ [1]: weakly antagonized

COC(=O)C1=C(C)NC(C)=C(C(=O)OCCN(C)Cc2ccccc2)C1c1cccc([N+](=O)[O-])c1 (stereo not drawn) [nicardipine]
Antagonism of (S)-MCLZ (1 μM) action at Sm.TRPMMCLZ [1]: weakly antagonized; also recorded: weakly attenuated

C[C@@H]1N=C(c2ccccc2Cl)c2cc([N+](=O)[O-])ccc2NC1=O [(S)-MCLZ, (S)-meclonazepam]
EC50 [1]: 1100 nM and ~1000 nM
Activation of Sm.TRPM[Y864A]MCLZ (effect of mutation) [7]: much less of an effect
EC50 [8]: > 50 µM
Activation of Sm.TRPM[E868A]MCLZ (effect of mutation) [9]: much less of an effect
Sensitivity of Sb.TRPM[H946Y] relative to wildtype [10]: lower sensitivity of response
Efficacy against juvenile / immature worms [5]: displays efficacy against juvenile worms
Cells with evoked currents [11]: 0/10
Activation of Sm.TRPM[H831A]MCLZ [12]: little activation
EC50 [13]: 1300 ± 300 nM
Activation of Sm.TRPM[H827A]MCLZ [14]: resembled the wildtype channel
Cells with evoked inward current ([15]; holding potential of 60 mV as printed): 17/21
Reversal potential of current-voltage relationship ([15]; voltage ramp, I-V linear): ~0 mV
Agonist activity at Sm.TRPMPZQ (concentration-response) ([2]; HEK293 cells, 1 nM to 100 μM): did not activate
Antagonism of PZQ activation of Sm.TRPMPZQ ([2]; competition versus (±)-PZQ (0.6 μM), high concentrations (>30 μM)): partially attenuated
Effect on worm movement (paralysis) [3]: rapid, spastic paralysis
IC50 [3]: 1540 ± 90 nM
Activation of Sm.TRPM[R943A]MCLZ [16]: little activation
EC50 [17]: > 50 µM
Damage to the worm tegument [18]: pronounced damage to the worm tegument
Time to spastic paralysis of adult S. mansoni worms [18]: < 1 min
IC50 ([18]; read-out: Sensitivity of schistosome worms, IC50): 2000 to 3000 nM
Sensitivity of Sh.TRPM[H946Y] relative to wildtype [19]: lower sensitivity of response
Activity against S. japonicum worms [20]: poorly active
Activation of Sm.TRPM[Y1117A]MCLZ [21]: little activation
Clinical outcome of infection [6, 27]: cured S. mansoni and S. haematobium infections
Side effects in subjects [6, 27]: dose-dependent drowsiness, dizziness, slurred speech, ataxia, reduced mental alertness, muscle weakness, hypotension, and bradycardia
EC50 [22]: 1400 ± 400 nM
Current response in pore mutant Sm.TRPMMCLZ [Y1038A] [23]: strongly attenuated
Ca2+ signals by confocal imaging in cells expressing Sm.TRPMMCLZ [24]: sustained Ca^2+ transients
Potency at Sm.TRPM[H946A]MCLZ relative to wildtype [25]: slightly increased potency
EC50 [26]: 800 ± 200 nM

O=C(O)CN(CCOCCOCCN(CC(=O)O)CC(=O)O)CC(=O)O [EGTA]
Effect of chelation of extracellular Ca2+ on the (S)-MCLZ-evoked Ca2+ signal ([1]; EGTA 1 mM in Ca2+-free HBSS, (S)-MCLZ 100 μM): abolished

CN1C(=O)CN=C(c2ccccc2F)c2cc([N+](=O)[O-])ccc21 [flunitrazepam]
Acute contraction / paralysis of S. mansoni male worms [4]: did not evoke worm contraction
